Experiments:
[1] = cited from earlier work
visual system = details: systemic administration to mammals (Goto et al. 2003, rats); cited from earlier work
[2] = system: Sod1tm1Leb/J mouse retina; assay type: in vivo, mice; details: 250 mg/kg IP once daily from three days before paraquat; 0.75 mM intravitreal paraquat; ERG days 1 and 7; n=4
Excerpt: In furtherance of the in vitro results of Example 1 we carried out an in vivo experiment examining the ability of valproic acid to protect against oxidative insult (oxidative stress) to mammalian retina. We used a murine model in which oxidative stress is induced by pre-dosing with intravitreal paraquat in Sod1^tm1Leb/J mouse model (as set forth in Dong A., et al., Superoxide Dismutase 1 Protects Retinal Cells From Oxidative Damage, J Cell Physio 208:516-526, 2006).
C57BL6 mice heterozygous from the SOD1 gene were obtained from Jackson labs (strain B6;129S7-Sod1tm1Leb/J). The mice were 3-4 months of age at the time of the experiment. […]
ERG recording were measured on dark adapted animals on days 1 and 7 post paraquat injection using an Espion ERG Diagnosys system and Burian-Allen electrodes, 3.0 mm diameter from LKC Technologies, Inc. For ERG recordings mice were anesthetized with ketamine (100 mg/kg) plus xylazine (50 mg/kg) administered IP and pupils dilated with 1% Akpentolate (cyclopentolate hydrochloride) and 10% AK-Dilate (phenylephrine hydrochloride). […] Scotopic ERGs were recorded using a 0.001, 0.01, and 1 cd·s/m2 flash as well as a 20 Hz flicker with the animal on a heating pad. A-wave, B-wave amplitudes were then calculated and statistically significant changes between valproic treated and non-treated animals determined using T test, n=4.

CCCC(CCC)C(=O)[O-].[Na+] [sodium valproate]
water solubility [1]: highly water soluble

CCCC(CCC)C(=O)O [valproic acid, 2-propylpentanoic acid]
effect on ERG a- and b-wave amplitudes and VEP (visual system): suppress ERG a- and b-wave amplitudes as well as VEP | effect on paraquat induced decrease in ERG B-wave amplitude [2]: significantly inhibited paraquat induced decrease in B-wave amplitude
